From ChEMBL document CHEMBL3507680, “University of Dundee, Gates Library screen for HepG2 cell viability”

Test: Human HepG2 cell viability assay in 384 well format
Assay type: toxicity, cell-based
Set-up: dose 125 nL, time 70.5 hour; cytotoxicity at 70.5 h: concentration not given beside the values
Conditions: HepG2 cells, read-out: Inhibition
`COCc1cncc2c1CCN(C(=O)c1ccsc1)C2` showed a cytotoxicity at 70.5 h of 9.92%. In the case of `CCn1ncc2c1C(COC)CN(S(=O)(=O)C1CC1)C2` (stereo not drawn), the cytotoxicity at 70.5 h was -8.31%. Molecule `CN(C)c1ncc2c(n1)C1(CCN(Cc3cccnc3)C1)COC2` (stereo not drawn) has a cytotoxicity at 70.5 h of 4.89%. With `Cc1noc(C)c1CN1CC2(CCN(C(=O)c3cc[nH]n3)C2)CC1=O` (stereo not drawn) the cytotoxicity at 70.5 h was -6.88%. For `O=C1NC2(CCN(C(=O)c3ccnnc3)CC2)CC1c1ccccc1` (stereo not drawn), the cytotoxicity at 70.5 h was 22.9%. For `Cc1ccc(Cn2cc(Br)c(NS(C)(=O)=O)n2)cc1`, the cytotoxicity at 70.5 h was -5.3%. For `Cc1cccc(Cn2cc(Br)c(NS(C)(=O)=O)n2)c1`, the cytotoxicity at 70.5 h was -6.39%. In the case of `CCn1cc(CNC(=O)CC(C)C)cn1`, the cytotoxicity at 70.5 h was 3.41%. Work on `COc1cccc(NC(=O)NCc2cnn(C)c2)c1` yielded a cytotoxicity at 70.5 h of -7.74%. In the case of `CCOc1ccc(C(=O)Nc2ccn(CC)n2)cc1`, the cytotoxicity at 70.5 h was -1.03%. In the case of `O=C(Cn1nc(C(F)(F)F)c(Br)c1C1CC1)N1CCOCC1`, the cytotoxicity at 70.5 h was -5.88%. `Cc1nn(CCC(=O)NC2CCS(=O)(=O)C2)c(C)c1Br` (stereo not drawn) showed a cytotoxicity at 70.5 h of -0.845%. With `O=C(NCCCN1CCOCC1)c1ccn(COc2ccccc2)n1` the cytotoxicity at 70.5 h was -7.55%. `O=C(NCCN1CCOCC1)c1ccn(COc2ccc(F)cc2)n1` showed a cytotoxicity at 70.5 h of -5.85%. `O=C(NCCCN1CCOCC1)c1ccn(COc2ccc(F)cc2)n1` showed a cytotoxicity at 70.5 h of -6.88%. With `CC(C(=O)Nc1ccc(Cl)cn1)n1ccc(C(F)(F)F)n1` (stereo not drawn) the cytotoxicity at 70.5 h was 1.33%. For `CC(C(=O)Nc1ccon1)n1ccc(C(F)(F)F)n1` (stereo not drawn), the cytotoxicity at 70.5 h was 15.3%. For `Cc1csc(NC(=O)C(C)Oc2ccc3c(c2)OCO3)n1` (stereo not drawn), the cytotoxicity at 70.5 h was -9.39%. `Cc1nn(Cc2ccc(C(=O)NCCCN3CCOCC3)o2)c(C)c1Cl` showed a cytotoxicity at 70.5 h of 24.8%. `CCC/N=c1/c(NC(=O)NCCOC)c(O)oc2ccccc12` showed a cytotoxicity at 70.5 h of 25.8%. Work on `Cc1nn(C)cc1CN(C)C(=O)c1ccccn1` yielded a cytotoxicity at 70.5 h of 1.81%. Molecule `Cc1nn(C)cc1CN(C)C(=O)c1ccncc1` has a cytotoxicity at 70.5 h of 2.69%. `CCn1cc(Cl)c(C(=O)NCCCO)n1` showed a cytotoxicity at 70.5 h of -3.76%. In the case of `COc1ccc(N2CCN(C(=O)C(C)n3cc(Br)cn3)CC2)cc1` (stereo not drawn), the cytotoxicity at 70.5 h was -1.02%. With `CC1CCN(C(=O)C(C)n2cc(Br)cn2)CC1` (stereo not drawn) the cytotoxicity at 70.5 h was -3.34%. `Cc1ccc(C(=O)Nc2nn[nH]n2)s1` gave a cytotoxicity at 70.5 h of -0.43%. For `O=C(Nc1cnn(COc2ccc(F)cc2Cl)c1)C1CC1`, the cytotoxicity at 70.5 h was 9.89%. Work on `CC(=O)Nc1ccn(Cc2ccccc2)n1` yielded a cytotoxicity at 70.5 h of -12.2%. For `COc1cccc(-c2cc(C(=O)NCCCn3nc(C)cc3C)[nH]n2)c1`, the cytotoxicity at 70.5 h was -1.83%. For `CSc1[nH]nc(NC(=O)c2ccccc2)c1C#N`, the cytotoxicity at 70.5 h was -10%. `CSc1[nH]nc(NC(=O)c2cccnc2)c1C#N` showed a cytotoxicity at 70.5 h of -5.13%. With `Cc1nn(Cn2ccc(C(=O)N3CCCC3)n2)c(C)c1Cl` the cytotoxicity at 70.5 h was -9.33%. Molecule `Cc1nn(Cn2ccc(C(=O)N3CCCCCC3)n2)c(C)c1Cl` has a cytotoxicity at 70.5 h of -11.3%. In the case of `CC(Cn1cc(Br)cn1)C(=O)Nc1ccn(C)n1` (stereo not drawn), the cytotoxicity at 70.5 h was 7.88%. Molecule `CCCNC(=O)c1nn(CC)cc1NC(=O)c1c(C)nn(C)c1C` has a cytotoxicity at 70.5 h of -11.3%. In the case of `CCn1cc(CNC(=O)c2nn(CC)cc2Br)cn1`, the cytotoxicity at 70.5 h was 8.71%. In the case of `Cc1cc(C(F)(F)F)nn1CC(C)C(=O)Nc1ccccn1` (stereo not drawn), the cytotoxicity at 70.5 h was -12.5%. For `CCOc1ccc(NC(C)=O)cc1S(=O)(=O)Nc1nnc(C)s1`, the cytotoxicity at 70.5 h was -10.8%. `CC(=O)c1cccc(S(=O)(=O)NCCNC(=O)c2snnc2C)c1` gave a cytotoxicity at 70.5 h of 7.7%. `COCCCNC1N=C(n2nc(C)cc2C)Nc2sc3c(c21)CCCC3` (stereo not drawn) showed a cytotoxicity at 70.5 h of 8.46%. `COc1ccc(OC)c(C(C)NC(=O)c2nn(C)c(C)c2Br)c1` (stereo not drawn) showed a cytotoxicity at 70.5 h of 27.1%. `CCCN(C(=O)CCS(=O)(=O)Cc1ccccc1)c1cccc(C)c1` showed a cytotoxicity at 70.5 h of -4.29%. `CCn1cc(CN(C)C(=O)c2cc(C(F)(F)F)n(C)n2)cn1` showed a cytotoxicity at 70.5 h of -7.42%. For `COc1cccc(-c2cc(C(=O)N3N=C(C)CC3(O)C(F)F)[nH]n2)c1` (stereo not drawn), the cytotoxicity at 70.5 h was -11%. `CCn1ccc(-c2nnc(SCC(=O)NCC(C)C)n2CC)n1` showed a cytotoxicity at 70.5 h of -10.3%. Molecule `Cc1nn(CCC(=O)N(C)Cc2c(Cl)cnn2C)cc1Br` has a cytotoxicity at 70.5 h of -14.9%. In the case of `Cn1cc(S(=O)(=O)N2CCN(S(=O)(=O)c3ccc(Br)s3)CC2)cn1`, the cytotoxicity at 70.5 h was -8.9%. Work on `Cc1nn(CCCNC(=O)C2CCN(S(C)(=O)=O)CC2)cc1Br` yielded a cytotoxicity at 70.5 h of -4.82%. For `O=C(c1ccc(COc2ccc(Cl)cc2)o1)N1N=CCC1(O)C(F)(F)F` (stereo not drawn), the cytotoxicity at 70.5 h was 10.7%. `COc1cccc(Cn2cc(N3C(=O)[C@H]4CCCC[C@H]4C3=O)cn2)c1` gave a cytotoxicity at 70.5 h of 26.3%. Molecule `COC(=O)c1ccnn1COc1ccc(Cl)cc1` has a cytotoxicity at 70.5 h of 28.1%. For `Cc1cc(C)cc(OCn2ccc(C(=O)O)n2)c1`, the cytotoxicity at 70.5 h was -10.3%. With `Cc1nn(C)c2nc(O)cc(C(F)(F)C(F)(F)F)c12` the cytotoxicity at 70.5 h was 0.0459%. Molecule `Cn1nc(C(=O)N2CCOCC2)cc1C(=O)Nc1cc(Cl)cc(Cl)c1` has a cytotoxicity at 70.5 h of -0.911%. Work on `Cn1c(=O)n(C)c2nc(Cl)c(CC(=O)c3ccccc3)n2c1=O` yielded a cytotoxicity at 70.5 h of -4.74%. `CCOc1ccc(N2CCCN=C2NC(=O)c2ccc(OC)cc2)cc1` showed a cytotoxicity at 70.5 h of -9.82%. `CN1CC(Oc2ccccc2)=NC(SCC(=O)c2ccccc2)=N1` gave a cytotoxicity at 70.5 h of -0.583%. With `CCC(=O)N1CCN(c2ncnc3cc4c(cc23)OCCO4)CC1` the cytotoxicity at 70.5 h was -4.42%. `Cc1nc(N2CCN(C(=O)c3ccccn3)CC2)c2c(n1)c(C)nn2C` showed a cytotoxicity at 70.5 h of -8.87%. In the case of `CCC(=O)N1CCN(c2nc(C)nc3c(C)nn(C)c23)CC1`, the cytotoxicity at 70.5 h was -6.94%. For `Cc1nn(Cn2ccc(C(=O)N3CCOCC3)n2)c(C)c1Cl`, the cytotoxicity at 70.5 h was -9.86%. With `COCCNc1ccc(CC2CCCN(Cc3c[nH]cn3)C2)nn1` (stereo not drawn) the cytotoxicity at 70.5 h was -0.712%. For `Cc1noc(C)c1C(=O)N1CCCC1(C)C(=O)NC1CCCC1` (stereo not drawn), the cytotoxicity at 70.5 h was -10.2%. With `Cc1ccccc1CN1CCCC1c1cncc(Nc2nncs2)n1` (stereo not drawn) the cytotoxicity at 70.5 h was -13.3%. Molecule `COCC(=O)N1CC(c2ccnc(Nc3cc(C(F)(F)F)ccn3)n2)C1` has a cytotoxicity at 70.5 h of 10.3%. Work on `CNC(=O)C1(C)CN(c2nc(C)cc(C)n2)CCO1` (stereo not drawn) yielded a cytotoxicity at 70.5 h of 1.44%. With `CNC(=O)c1cnn2c(C3CCCN3C)ccnc12` (stereo not drawn) the cytotoxicity at 70.5 h was 12.8%. With `CNC(=O)c1cnn2c(C3CCCN3)ccnc12` (stereo not drawn) the cytotoxicity at 70.5 h was 6.37%. Work on `O=C(CO)N1CCC(c2ccnc(Nc3cc(C(F)(F)F)ccn3)n2)C1` (stereo not drawn) yielded a cytotoxicity at 70.5 h of -3.68%. `O=C(CCc1cccc(C2CCNCC2)n1)N1CCCCC1` showed a cytotoxicity at 70.5 h of -12.2%. For `NCC(=O)N1CCC(c2ccnc(Nc3cc(C(F)(F)F)ccn3)n2)C1` (stereo not drawn), the cytotoxicity at 70.5 h was 16.8%. For `O=C(NCc1cncc2c1CCN(Cc1ccccc1)C2)C1CC1`, the cytotoxicity at 70.5 h was 9.59%. `CS(=O)(=O)NCc1cncc2c1CCN(CC1CCOC1)C2` (stereo not drawn) showed a cytotoxicity at 70.5 h of 2.49%. `Cc1ncnc2c1CCN(C(=O)c1ccncc1)CC2` showed a cytotoxicity at 70.5 h of 8.77%. Work on `CCOCC1CN(S(=O)(=O)N(C)C)Cc2cnn(CC3CC3)c21` (stereo not drawn) yielded a cytotoxicity at 70.5 h of 2.18%. For `COc1ccc(CN2CC[C@H]3CO[C@H](CNC(=O)N(C)C)[C@H]3C2)cc1`, the cytotoxicity at 70.5 h was -7.9%. In the case of `COCC(=O)N1CCC(c2nc3ccc(-c4ccncc4)cn3n2)CC1`, the cytotoxicity at 70.5 h was -6.45%. `COCCN1CCC(c2nc3ccc(N4CCCC4)cn3n2)CC1` showed a cytotoxicity at 70.5 h of -8.32%. Work on `Cn1nnc2c1C(COCc1ccccn1)CN(C(=O)c1ccsc1)C2` (stereo not drawn) yielded a cytotoxicity at 70.5 h of -6.33%. In the case of `Cc1nnc(N2C[C@H](Oc3ccccn3)[C@H]3OCCC[C@H]32)s1`, the cytotoxicity at 70.5 h was 8.06%. `CCN(CC)CC1CN(Cc2ccc(C)s2)Cc2nccn2C1` (stereo not drawn) showed a cytotoxicity at 70.5 h of -7.85%. With `Cc1cccc(CO[C@H]2CN(c3nnc(C)s3)[C@@H]3CCCO[C@H]23)n1` the cytotoxicity at 70.5 h was 0.219%. `CCn1[nH]c(C)c2c(C(F)(F)F)cc(=O)nc1-2` gave a cytotoxicity at 70.5 h of -4.81%.
